Calls of active or inactive are those of the source. The rule behind the calls is not given here.
Tested on: not listed separately
Experiment: Antitumor initiating activity in human Chang cells assessed as ratio of inhibition of cellular transformation in presence of NOR1 to compound and NOR1 at 350 nmol treated 1 min before NOR1 addition measured after 1 hr by light microscopy
Assay type: functional
With `CC(C)c1cc2c(cc1O)[C@@]1(C)CCC[C@@](C)(C(=O)O)[C@@H]1CC2` the Ratio was 2.
Work on `CC(=O)Oc1cc(OC(C)=O)c2c(c1)[C@@H]1C3C(=CC(=O)C[C@H]1c1ccc(OC(C)=O)c(OC(C)=O)c1)O[C@H](c1ccc(OC(C)=O)c(OC(C)=O)c1)[C@@H](O)[C@H]23` (stereo not given in full) yielded a Ratio of 1.8.
With `CC(=O)Oc1cc(OC(C)=O)cc([C@H]2c3c(/C=C/c4ccc(OC(C)=O)c(OC(C)=O)c4)cc(OC(C)=O)cc3O[C@@H]2c2ccc(OC(C)=O)c(OC(C)=O)c2)c1` the Ratio was 1.9.
For `CC(=O)Oc1cc(/C=C/c2ccc3c(c2)O[C@H](c2ccc(OC(C)=O)c(OC(C)=O)c2)[C@@H](c2cc(OC(C)=O)cc(OC(C)=O)c2)O3)cc(OC(C)=O)c1`, the Ratio was 1.8.
`CC(=O)Oc1cc(OC(C)=O)cc([C@@H]2c3c(cc(OC(C)=O)c4c3O[C@H](c3ccc(OC(C)=O)c(OC(C)=O)c3)[C@@H](O)C4)O[C@H]2c2ccc(OC(C)=O)c(OC(C)=O)c2)c1` showed a Ratio of 1.9.
`CC(=O)Oc1cc(OC(C)=O)cc([C@H]2c3c(cc(OC(C)=O)c4c3O[C@H](c3ccc(OC(C)=O)c(OC(C)=O)c3)[C@@H](O)C4)O[C@@H]2c2ccc(OC(C)=O)c(OC(C)=O)c2)c1` gave a Ratio of 1.9.
For `CC(=O)Oc1ccc(/C=C/c2cc(OC(C)=O)cc3c2[C@H](c2cc(OC(C)=O)cc(OC(C)=O)c2)[C@@H](c2ccc(OC(C)=O)c(OC(C)=O)c2)O3)cc1`, the Ratio was 1.8.
Compound `COc1cc([C@H]2Oc3cc(C(=O)O)ccc3O[C@@H]2CO)ccc1O` [3-O-METHYL ISOAMERICANOIC ACID A] has a Ratio of 1.7.
Work on `O=C1c2c(O)cc(O)cc2O[C@H](c2ccc(O)c(O)c2)[C@H]1O` [(+)-TAXIFOLIN] yielded a Ratio of 2.5.
`Oc1cc(O)cc(/C=C/c2ccc3c(c2)O[C@H](c2ccc(O)c(O)c2)[C@@H](c2cc(O)cc(O)c2)O3)c1` [CASSIGAROL E] gave a Ratio of 2.1.
In the case of `O=C(O)/C=C/c1ccc(O)cc1` [COUMARIC ACID], the Ratio is reported as 1.9.
Work on `COc1cc(/C=C/C(=O)CC(=O)/C=C/c2ccc(O)c(OC)c2)ccc1O` [CURCUMIN] yielded a Ratio of 2.1.
In the case of `COc1cc([C@@H]2Oc3c(OC)cc(CCCO)cc3[C@H]2CO)ccc1O` [DIHYDRODEHYDRODICONIFERYL ALCOHOL], the Ratio is reported as 1.8.
For `COc1cc([C@H]2c3cc(O)c(OC)cc3C[C@@H](CO)[C@@H]2CO)ccc1O` [ISOLARICIRESINOL], the Ratio was 2.
`Oc1cc(O)cc([C@@H]2c3c(cc(O)c4c3O[C@H](c3ccc(O)c(O)c3)[C@@H](O)C4)O[C@H]2c2ccc(O)c(O)c2)c1` [JEZONOCINOL A] gave a Ratio of 2.7.
`Oc1cc(O)cc([C@H]2c3c(cc(O)c4c3O[C@H](c3ccc(O)c(O)c3)[C@@H](O)C4)O[C@@H]2c2ccc(O)c(O)c2)c1` [JEZONOCINOL B] gave a Ratio of 2.7.
`O=C1C=C2O[C@H](c3ccc(O)c(O)c3)[C@@H](O)[C@@H]3c4c(O)cc(O)cc4[C@H](C23)[C@H](c2ccc(O)c(O)c2)C1` (stereo not given in full) [JEZONOCINOL C] showed a Ratio of 2.3.
Compound `O=C1C=C(/C=C/c2ccc(O)c(O)c2)[C@@H]2C(=O)[C@H]1[C@H](c1ccc(O)c(O)c1)[C@H]2c1cc(O)cc(O)c1` [JEZONODIONE] has a Ratio of 2.2.
With `Oc1cc2c3c(c4cc(O)cc5c4c(c3c1)[C@@H](c1ccc(O)c(O)c1)O5)[C@@H](c1ccc(O)c(O)c1)O2` [JEZONOFOL] the Ratio was 2.3.
In the case of `COc1cc(/C=C2/C(=O)O[C@H](c3ccc(O)c(O)c3)[C@H]2c2cc(O)cc(O)c2)ccc1O` [JEZONOLIDE], the Ratio is reported as 2.1.
In the case of `COc1cc(C[C@H]2CO[C@H](c3ccc(O)c(OC)c3)[C@H]2CO)ccc1O` [LARICIRESINOL], the Ratio is reported as 2.
`Oc1cc(O)cc(/C=C/c2ccc(O)c(O)c2)c1` [PICEATANNOL] showed a Ratio of 2.
With `O=Cc1ccc(O)c(O)c1` [PROTOCATECHUALDEHYDE] the Ratio was 1.8.
`O=C(O)c1ccc(O)c(O)c1` [PROTOCATECHUIC ACID] gave a Ratio of 1.8.
With `O=c1c(O)c(-c2ccc(O)c(O)c2)oc2cc(O)cc(O)c12` [QUERCETIN] the Ratio was 2.9.
For `Oc1ccc(/C=C/c2cc(O)cc3c2[C@H](c2cc(O)cc(O)c2)[C@@H](c2ccc(O)c(O)c2)O3)cc1` [SCIRPUSIN A], the Ratio was 2.
In the case of `Oc1cc(O)cc([C@H]2c3c(/C=C/c4ccc(O)c(O)c4)cc(O)cc3O[C@@H]2c2ccc(O)c(O)c2)c1` [TRANS-SCIRPUSIN B], the Ratio is reported as 2.2.

Tested on: Mus musculus
Experiment: Anticancer activity against peroxynitrite/TPA-induced skin cancer in ICR mouse assessed as delay in tumor promotion at 0.187 mg/day, po administered for 2 weeks
Assay type: functional, organism-based
In the case of `Oc1cc(O)cc([C@H]2c3c(cc(O)c4c3O[C@H](c3ccc(O)c(O)c3)[C@@H](O)C4)O[C@@H]2c2ccc(O)c(O)c2)c1` [JEZONOCINOL B], the Activity is reported as “Active”.

Tested on: not listed separately
Experiment: Anticancer activity against peroxynitrite/TPA-induced skin cancer in ICR mouse assessed as occurrence of papilloma at 0.187 mg/day, po administered for 2 weeks measured on week 11
Assay type: functional
For `Oc1cc(O)cc([C@H]2c3c(cc(O)c4c3O[C@H](c3ccc(O)c(O)c3)[C@@H](O)C4)O[C@@H]2c2ccc(O)c(O)c2)c1` [JEZONOCINOL B], the Activity was 27%.

Tested on: not listed separately
Experiment: Anticancer activity against peroxynitrite/TPA-induced skin cancer in ICR mouse assessed as average number of papilloma per mouse at 0.187 mg/day, po administered for 2 weeks measured on week 20
Assay type: functional
Work on `Oc1cc(O)cc([C@H]2c3c(cc(O)c4c3O[C@H](c3ccc(O)c(O)c3)[C@@H](O)C4)O[C@@H]2c2ccc(O)c(O)c2)c1` [JEZONOCINOL B] yielded an Activity of 3.1.
